Measurements as given in patent US4842845A, “Radioactive metal chelates for dipyridoxyl phosphate” (Salutar, Inc., priority 1987, dated 1989).

Experiment: Potentiometric titration of DPDP (pH 11.2 to 2.0), protonation sites
Type: physicochemical
Settings: at a pH of 3 and above
Experimental: The compound DPDP was studied potentiometrically from pH 11.2 to 2.0. Data sets were collected on a custom-built automatic potentiometric titration apparatus composed of a METROHM 655 DOSIMAT automatic buret, a FISHER ACCUMET pH meter with a CORNING calomel combination electrode, a custom-blown water jacketed titration cell, a BRINKMAN LAUDA K-2/R constant temperature bath and a COMMODORE 64 computer. […] Data analysis was performed on an IBM-AT computer using the least squares program, BETA (Harris, W. et al, supra), and the data analysis program, HANDNBAR (Harris, W. et al, supra). […] All solutions were made from distilled, deionized water that was further purified on a MILLI-Q cartridge system, degassed, and then kept under an atmosphere of argon which had been scrubbed for CO2 and O2.

Cc1ncc(COP(=O)(O)O)c(CN(CCN(CC(=O)O)Cc2c(COP(=O)(O)O)cnc(C)c2O)CC(=O)O)c1O [DPDP, N,N'-bis-(pyridoxal-5-phosphate)-ethylenediamine-N,N'-diacetic acid]
Protonation / charge state of the ligand (dissociation constants assigned to the protonation sites): anionic and possesses deprotonated metal binding sites
